In patent US20060135587A1, “Method and compounds for promoting healing and reducing inflammation” (priority 2002, published 2006):
Marks after values point to notes of the source that are not given here.

What was measured:
mice, rats, dogs = assay: Chronic toxicity studies over six months; format: in vivo; conditions: mice and rats 40 mg/kg per day subcutaneously, dogs 10 or 40 mg/kg per day orally
Protocol: No effect on body weight, weight of internal organs, structure or function of internal organs or blood indicators was observed. These studies were performed in mice (40 mg/kg per day, given subcutaneously), in rats (40 mg/kg per day, given subcutaneously) and in dogs (10 mg/kg or 40 mg/kg per day, given orally).

experimental granuloma = assay: Cotton-wool granuloma (chronic proliferative inflammation) in rats; format: in vivo; conditions: 100 mg/kg orally, 12 days
Protocol: We investigated the ability of compound (2) to reduce the formation of granulation tissue in the inflammatory focus which develops at the site at which a non-sterile cotton-wool roll weighing 40 mg is implanted subcutaneously (Swingle and Shideman, 1972). Compound (2) was administered orally to male rats weighing 130-150 g at a dose of 100 mg/kg for 6 days before the cotton-wool roll was implanted, and then for 6 days at the same dose while the granuloma developed. Anti-inflammatory agents, such as ibuprofen and butadione, were used for comparison, using the same procedure. There were 10 rats in each group.
After 12 days the experiment was terminated, and the granulomas were excised, weighed, and the wet weight of the granulation tissue was measured. The dry mass of the granuloma was measured after drying for 24 hours at 70° C., and the exudative and proliferative stages of the granulomas were calculated. Statistical analysis was performed using the Student's parametric test.

[1] = system: chronic active viral hepatitis; assay: Clinical study in chronic active viral hepatitis; format: in vivo, human; conditions: 600 mg a day orally
Protocol: 45 patients aged between 18 and 32 years old with chronic active viral hepatitis were divided into 4 groups and kept under observation. All patients had received conventional therapy, usually potassium orotate, riboxin and interferon prior to commencement of the trial.
The first group (10 patients) received conventional therapy for 20 days. Assessment of clinical and biochemical indicators and serology data was carried out repeatedly for 20 days after the beginning of treatment.
The second group (10 patients) received both conventional treatment and prednisolone at a dose of […] for 20 days. In this group the clinical-biochemical and serological analysis took place before the treatment, and 10 days and 20 days after the beginning of treatment.
The third group (10 patients) received both conventional treatment and Compound 2 administered orally at a dose of 600 mg a day for 20 days. The control clinical-biochemical and serological analysis was carried out 20 days after the beginning of treatment.
The fourth group (15 patients) received prednisolone either orally or intravenously at a dose of 15 mg a day for 10 days; then prednisolone was stopped and replaced by Compound 2 at a dose of 600 mg a day for 10 days. […]

[2] = system: aseptic full-thickness skin wounds; assay: Healing of aseptic full-thickness skin wounds in rats, topical treatment; format: in vivo
From the text: To heal successfully, wounds should be treated with regard to specific features of the various stages of healing process of the wound (Kuzin et al, 1981). The wound-healing effect of salts of N-substituted 1,3-dialkyl-4,5-bis(carbamoyl)imidazolium derivatives was studied in a model of aseptic full-thickness skin wounds in rats (Zapadnyuk et al, 1983). The effect of 10% 1-ethyl-3-methyl-4,5-bis(N-methylcarbamoyl)imidazolium benzensulfonate in a lanolin ointment base was compared to that of Solcoseryl gel and Spasatel balm.
Aseptic full-thickness skin wounds were created in rats under light ether anaesthesia. At a site on the animal's back where the animal could not lick the wound, the skin was shaved, and a circular piece of skin approximately 2.5 cm^2 area was excised with scissors. Following recovery from anaesthesia the animals were kept in separate cages, with normal food and water ad libitum. A total of 100 rats weighing from 200 to 250 g were used, with 20 rats in each group. The groups were as follows:
Treatment was performed 24 hours after the wounding by applying […] once a day in a proportion of 80 mg of ointment per 1 cm^2 of the wound area (8 mg of substance per 1 cm^2) and then daily until healing was complete.
Animals were examined at 5, 10, 15 and 20 days for the following parameters; wound size and wound healing time; weight gain, peripheral blood indicators (total leucocyte count, differential leucocyte count, and erythrocyte sedimentation rate); and biochemical serum indicators (total protein, albumin, globulin, and globulin fractions); and macroscopic and microscopic assessment of wounds. The average complete wound healing period was 16.8±1.9 days for Compound 2, compared to 23.5±2.2 days for Spasatel and 24.0±2.4 days for Solcoseryl.
For measurement of wound size, a sterile object plate was laid over the wound, and its contour was outlined with a marker. The wounds were photographed, the wound outlines were scanned, and their area was calculated using an in-house computer program.

Which results are given for `CC[n+]1cn(C)c(C(=O)NC)c1C(=O)NC.O=S(=O)([O-])c1ccccc1` [Compound 2, 1-methyl-3-ethyl-4,5-bis(N-methylcarbamoyl)-imidazolium benzenesulfonate]?
chronic toxicity findings (mice, rats, dogs): had no irritating or allergic action, does not act on the central nervous system, and has no teratogenic, mutagenic or carcinogenic immunosuppressive activity; Granuloma weight (mg) Dry weight (experimental granuloma): 180.71 ± 14.16 mg; Granuloma weight (mg) Exudative stage (experimental granuloma): 775.58 mg; Granuloma weight (mg) Fresh weight (experimental granuloma): 956.29 ± 115.5 mg; Granuloma weight (mg) Proliferative stages (experimental granuloma): 140.71 mg; clinical picture and biochemical indicators [1]: improves the clinical picture and normalizes biochemical indicators; Wound area (% of area before treatment) ([2]; 5th day, topical, test compound as 10% ointment): 84.0%; wound area on the fifteenth day ([2]; 10% Compound 2 ointment): 0.4%; Wound area (% of area before treatment) ([2]; 10th day, topical, test compound as 10% ointment): 8.1%; Wound area (% of area before treatment) ([2]; 15th day, topical, test compound as 10% ointment): 0.4%; Wound area (% of area before treatment) ([2]; 20th day, topical, test compound as 10% ointment): 0.1%; Epithelialization (duration in days) ([2]; Table 8, topical once a day, Compound 2 as 10% ointment in lanolin): 16.8 ± 1.9*^.** days; Epithelialization period ([2]; Table 10, topical, test compound as 10% ointment): 16.8 ± 1.9; average complete wound healing period ([2]; text b167): 16.8 ± 1.9 days
